Experimental data reported in patent US7981443B2, “Method of treating sleep disordered breathing using topiramate” (priority 2000, dated 2011).

Key:
[1] = system: obstructive sleep apnoea (OSA); assay: Double-blind, placebo controlled cross-over study of topiramate in patients with light to moderate OSA; format: in vivo
Experimental: A double-blind, placebo controlled cross-over study of topiramate was undertaken in 2 patients with light to moderate OSA (A/H index, 22 and 35 on previous screening). Topiramate (100 mg b.i.d or corresponding placebo) was administered for 10 days in each cross-over period. A wash-out period of one week was applied between the two treatment periods.

[2] = system: aminohydroxymethylisoxazole propionic acid (AMPA) glutamate receptor subtype site; details: rat hippocampal pyramidal neurones; effect at AMPA site; cited from earlier work
[3] = system: voltage-gated sodium electrogenesis; details: specific action on voltage-gated sodium electrogenesis in certain areas of the nervous system; cited from earlier work
carbonic anhydrase = details: cited from earlier work
[4] = system: N-methyl-D-aspartate (NMDA) mediated glutamate receptor subtype site; details: cited from earlier work
[5] = system: glutamate in the hippocampus; details: in vivo; cited from earlier work

In the case of CC1(C)O[C@@H]2[C@@H](CO[C@@]3(COS(N)(=O)=O)OC(C)(C)O[C@@H]23)O1 [topiramate, 2,3:4,5-di-o-isopropylidene-β-D-fructopyranose sulfamate], the Blood pressure ([1]; between the two study nights (topiramate vs placebo)) is reported as “did not differ”, the Side effects ([1]; during the study period) is reported as “No side effects were reported” and the “A/H index during topiramate” value ([1]; first patient (placebo 24), 100 mg b.i.d for 10 days) is reported as 9. The “A/H index during topiramate” value ([1]; second patient (placebo 33), 100 mg b.i.d for 10 days) was 6, the Daytime sleepiness ([1]; spontaneous reporting by both patients, 100 mg b.i.d for 10 days) was “markedly reduced” and the Kainate-elicited excitatory response [2] was “blocked”. For the same molecule, the “Cellular activity / cellular bursting activity” value [3] was “dose-dependently reduce cellular activity”, the “Inhibition of the enzyme carbonic anhydrase” value (carbonic anhydrase) was “weakly inhibit” and the “Effect at the NMDA mediated glutamate receptor subtype site” value [4] was “had no effect”. For the same molecule, the “Abnormally high concentrations of glutamate in the hippocampus” value [5] was “reduce”.
